For two compounds, Km results are on record in patent publication US5173416A, “L-carnitine dehydrogenase from alcalgenes” (Toyo Jozo Kabushiki Kaisha, priority 1989, dated 1992).

This assay deals with L-carnitine dehydrogenase from Alcaligenes sp. No. 981 (FERM BP-2570). Put plainly: Km determination of L-carnitine dehydrogenase (diaphorase/NBT coupled reaction mixture). In kind it is biochemical. As for the experimental part: Km-value for NAD^+ is measured in various concentrations of NAD^+ in a reaction mixture of:
100 mM Tris-HCl buffer (pH 9.0)
5 U diaphorase (Toyo Jozo Co.)
0.025% NBT (Wako Pure Chem. Co.)
1% Tween 80 (Wako Pure Chem. Co.) and
In the reaction mixture, 50 mM L-carnitine is replaced by 1 mM NAD^+, and the concentration of L-carnitine is varied to measure the Km-value of L-carnitine.
The results are as shown above.

Molecules are shown by their SMILES. Like-named read-outs stand apart in the source and are kept apart here.

Consider `NC(=O)c1ccc[n+]([C@@H]2O[C@H](COP(=O)([O-])OP(=O)(O)OC[C@H]3O[C@@H](n4cnc5c(N)ncnc54)[C@H](O)[C@@H]3O)[C@@H](O)[C@H]2O)c1` [NAD^+], for which the Km (100 mM Tris-HCl buffer pH 9.0, 50 mM L-carnitine, NAD+ concentration varied, read-out: Km-value (NAD+)) is 0.141 mM. On to `C[N+](C)(C)C[C@H](O)CC(=O)[O-]` [L-carnitine], for which the Michaelis-Menten constant (Km) (100 mM Tris-HCl buffer pH 9.0, 1 mM NAD+, L-carnitine concentration varied, read-out: Km-value (L-carnitine)) turned out to be 9.3 mM.
